Test results taken from patent US9266871B2, “Trifluoromethyl-substituted fused pyrimidines and their use” (BAYER PHARMA AKTIENGESELLSCHAFT, priority 2013, dated 2016).

Target: T1, recombinant guanylate cyclase reporter cell line (Rattus norvegicus, UniProt P19686+P20595)
T1 construct: expressed in transfected cells; host or cells: recombinant reporter cell line
T1 sequence (P19686 1-690): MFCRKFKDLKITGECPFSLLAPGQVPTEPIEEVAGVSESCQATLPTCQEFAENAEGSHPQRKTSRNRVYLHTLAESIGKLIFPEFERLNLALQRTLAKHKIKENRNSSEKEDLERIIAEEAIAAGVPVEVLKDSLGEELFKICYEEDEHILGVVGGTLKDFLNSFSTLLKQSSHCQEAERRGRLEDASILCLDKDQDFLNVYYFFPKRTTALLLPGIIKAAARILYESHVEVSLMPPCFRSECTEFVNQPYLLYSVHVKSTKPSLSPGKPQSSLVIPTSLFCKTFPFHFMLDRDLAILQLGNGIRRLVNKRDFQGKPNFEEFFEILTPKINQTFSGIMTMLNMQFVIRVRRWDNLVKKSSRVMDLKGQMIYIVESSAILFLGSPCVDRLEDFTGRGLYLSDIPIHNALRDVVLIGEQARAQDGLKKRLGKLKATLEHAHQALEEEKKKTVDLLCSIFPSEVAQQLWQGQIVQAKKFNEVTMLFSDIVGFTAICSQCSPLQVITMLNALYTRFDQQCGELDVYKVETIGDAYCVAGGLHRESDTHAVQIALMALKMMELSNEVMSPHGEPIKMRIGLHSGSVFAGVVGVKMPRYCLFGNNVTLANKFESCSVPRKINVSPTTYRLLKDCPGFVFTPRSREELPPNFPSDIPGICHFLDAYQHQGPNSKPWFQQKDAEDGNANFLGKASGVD
T1 sequence (P20595 1-619): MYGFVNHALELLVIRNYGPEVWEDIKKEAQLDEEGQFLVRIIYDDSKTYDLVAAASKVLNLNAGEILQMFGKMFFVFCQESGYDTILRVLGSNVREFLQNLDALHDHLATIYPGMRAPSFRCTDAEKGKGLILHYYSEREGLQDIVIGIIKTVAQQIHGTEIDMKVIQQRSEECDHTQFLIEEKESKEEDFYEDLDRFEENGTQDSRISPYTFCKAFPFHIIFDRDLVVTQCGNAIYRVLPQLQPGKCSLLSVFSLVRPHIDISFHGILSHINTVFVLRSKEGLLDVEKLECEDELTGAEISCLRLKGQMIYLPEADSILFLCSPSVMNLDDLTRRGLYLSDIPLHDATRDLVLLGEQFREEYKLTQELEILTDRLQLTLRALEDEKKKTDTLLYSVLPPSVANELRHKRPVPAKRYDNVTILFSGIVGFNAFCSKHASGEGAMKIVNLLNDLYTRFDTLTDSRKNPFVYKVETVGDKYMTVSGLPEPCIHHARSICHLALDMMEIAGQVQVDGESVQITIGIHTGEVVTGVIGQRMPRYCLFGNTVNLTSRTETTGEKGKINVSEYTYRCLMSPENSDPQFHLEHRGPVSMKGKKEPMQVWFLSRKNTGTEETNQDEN
Assay: Effect on a recombinant guanylate cyclase reporter cell line
Format: cell-based
Method: B-2. Effect on a Recombinant Guanylate Cyclase Reporter Cell Line
The cellular activity of the compounds according to the invention is determined using a recombinant guanylate cyclase reporter cell line, as described in F. Wunder et al., Anal. Biochem. 339, 104-112 (2005).

Compound: C[C@@]1(C(F)(F)F)C(=O)Nc2nc(-c3nn(Cc4ncccc4F)c4ncc(F)cc34)nc(NCCC(F)(F)F)c21 (single isomer, unassigned) [Example 1-1]
- MEC (minimum effective concentration): 0.1 µM

Compound: C[C@]1(C(F)(F)F)C(=O)Nc2nc(-c3nn(Cc4ncccc4F)c4ncc(F)cc34)nc(NCCC(F)(F)F)c21 (single isomer, unassigned) [Example 1-2]
- MEC (minimum effective concentration): 1.0 µM
